Measurements: PMC12207590, “Substrate Specificity of the Organic Cation Transporters MATE1 and MATE2K and Functional Overlap with OCT1 and OCT2” (Journal of Medicinal Chemistry, 2025)
Where two headings read alike, the source gives them in different places.

Key:
MATE1 = target: T1, MATE1 (Homo sapiens, UniProt Q96FL8); assay: Uptake ratio in MATE1-overexpressing HEK293 cells vs empty vector (2.5 μM, 1 min, HPLC-MS/MS); type: cell-based
T1 sequence (Q96FL8 1-570): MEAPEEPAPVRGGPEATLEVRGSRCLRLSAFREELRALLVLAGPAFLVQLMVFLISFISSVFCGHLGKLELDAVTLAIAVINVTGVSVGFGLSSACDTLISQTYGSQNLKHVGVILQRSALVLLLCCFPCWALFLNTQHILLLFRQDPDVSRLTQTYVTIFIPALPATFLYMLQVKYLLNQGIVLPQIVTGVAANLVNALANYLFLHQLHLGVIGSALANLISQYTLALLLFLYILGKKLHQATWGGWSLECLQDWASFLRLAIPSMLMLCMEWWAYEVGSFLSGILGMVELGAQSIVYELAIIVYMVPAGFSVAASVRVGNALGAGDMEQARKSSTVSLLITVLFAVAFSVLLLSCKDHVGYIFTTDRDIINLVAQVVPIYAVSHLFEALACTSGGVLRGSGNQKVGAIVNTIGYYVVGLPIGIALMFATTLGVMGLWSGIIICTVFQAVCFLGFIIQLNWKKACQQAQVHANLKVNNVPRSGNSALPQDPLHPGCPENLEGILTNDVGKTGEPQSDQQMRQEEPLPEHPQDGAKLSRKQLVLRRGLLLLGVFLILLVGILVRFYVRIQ

MATE2K = MATE2K (Homo sapiens, UniProt Q86VL8); assay: Uptake ratio in MATE2K-overexpressing HEK293 cells vs empty vector (2.5 μM, 1 min, HPLC-MS/MS); type: cell-based
[1] = fold uptake over empty vector, 2.5 μM, 1 min
[2] = uptake ratio MATE1-overexpressing vs empty-vector HEK293 cells, 2.5 μM, 1 min, mean
[3] = uptake ratio MATE2K-overexpressing vs empty-vector HEK293 cells, 2.5 μM, 1 min, mean
[4] = mean ratio of uptake in MATE1-overexpressing HEK293 cells vs empty vector, 2.5 μM, 1 min
[5] = mean ratio of uptake in MATE2K-overexpressing HEK293 cells vs empty vector, 2.5 μM, 1 min

Sequence of MATE2K (Q86VL8 1-566 isoform Q86VL8-3): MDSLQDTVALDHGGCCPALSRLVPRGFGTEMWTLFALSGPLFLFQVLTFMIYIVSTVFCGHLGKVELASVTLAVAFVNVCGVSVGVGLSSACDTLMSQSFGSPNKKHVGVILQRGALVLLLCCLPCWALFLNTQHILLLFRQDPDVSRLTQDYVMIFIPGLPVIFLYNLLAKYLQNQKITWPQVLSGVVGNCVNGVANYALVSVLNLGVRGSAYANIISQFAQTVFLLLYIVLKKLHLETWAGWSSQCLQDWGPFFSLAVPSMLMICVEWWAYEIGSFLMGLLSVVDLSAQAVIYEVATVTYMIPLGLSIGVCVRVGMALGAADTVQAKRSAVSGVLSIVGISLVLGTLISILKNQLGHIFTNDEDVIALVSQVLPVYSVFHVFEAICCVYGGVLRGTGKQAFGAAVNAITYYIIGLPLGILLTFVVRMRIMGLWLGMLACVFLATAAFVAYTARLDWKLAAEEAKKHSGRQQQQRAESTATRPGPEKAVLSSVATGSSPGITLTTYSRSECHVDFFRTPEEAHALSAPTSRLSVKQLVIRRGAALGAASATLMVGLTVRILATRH

CC(C)(C)NCC(O)c1ccc(O)c(CO)c1 [Salbutamol (R), Salbutamol]
MATE1 ratio in this study (MATE1; Table S1, 2.5 μM, 1 min): 6.98
MATE1 ratio (MATE1; [1]): 6.98
MATE1 (MATE1; [2]): 6.98
MATE2K ratio in this study (MATE2K; Table S1, 2.5 μM, 1 min): 3.74
MATE2K ratio (MATE2K; [1]): 3.74
MATE2 (MATE2K; [3]): 3.74

COc1cc2ncnc(Nc3ccc(F)c(Cl)c3)c2cc1OCCCN1CCOCC1 [Gefitinib]
MATE1 ratio (MATE1; [1]): 0.89
MATE2K ratio (MATE2K; [1]): 0.88

CC(=O)N[C@@H](CS)C(=O)O [N-Acetyl-L-cysteine]
MATE1 ratio (MATE1; [1]): 1.02
MATE2K ratio (MATE2K; [1]): 0.95

CNCC(O)c1ccc(O)cc1.CNCC(O)c1ccc(O)cc1.O=C(O)C(O)C(O)C(=O)O (stereo not shown) [Synephrine]
MATE1 (MATE1): 6.5
MATE2 (MATE2K): 1.04

CC(C)(C)NCC(O)c1ccc(O)c(CO)c1 (stereo not shown) [Salbutamol]
MATE1 ratio in this study (MATE1; Table S1, 2.5 μM, 1 min): 7.94
MATE1 ratio (MATE1; [1]): 7.94
MATE1 (MATE1; [2]): 7.94
MATE2K ratio in this study (MATE2K; Table S1, 2.5 μM, 1 min): 3.73
MATE2K ratio (MATE2K; [1]): 3.73
MATE2 (MATE2K; [3]): 3.73

CNCCc1ccc(O)cc1 [N-Methyl-p-Tyramine]
MATE1 ratio (MATE1): 3.11
MATE2K ratio (MATE2K): 1.39

NCC(O)c1cccc(O)c1 (stereo not shown) [Norphenylephrine]
MATE1 ratio (MATE1; [1]): 26.13
MATE2K ratio (MATE2K; [1]): 1.22

CN(C)CCc1c[nH]c2ccc(Cn3cncn3)cc12 [Rizatriptan]
MATE1 ratio (MATE1; [1]): 6.63
MATE1 (MATE1; [2]): 6.63
MATE2K ratio (MATE2K; [1]): 3.35
MATE2 (MATE2K; [3]): 3.35

OC(CNCC(O)C1CCc2cc(F)ccc2O1)C1CCc2cc(F)ccc2O1 (stereo not shown) [Nebivolol]
MATE1 ratio (MATE1; [1]): 1.41
MATE2K ratio (MATE2K; [1]): 1.45

COc1cc2c(cc1OC)-c1cc3ccc4c(c3c[n+]1CC2)OCO4 [Epiberberine]
MATE1 ratio (MATE1): 12.54
MATE2K ratio (MATE2K): 5.89

CC[N+](CC)(CC)CC [Tetraethyl ammonium (TEA), Tetraethyl ammonium]
MATE1 ratio in this study (MATE1): 25.44
MATE2K ratio in this study (MATE2K): 6.73

Oc1ccc(C2CNCCc3c2cc(O)c(O)c3Cl)cc1 (stereo not shown) [Fenoldopam]
MATE1 ratio (MATE1; [1]): 8.11
MATE2K ratio (MATE2K; [1]): 4.17

CN1[C@@H]2CC[C@H]1C[C@@H](OC(=O)c1c[nH]c3ccccc13)C2 [Tropisetron]
MATE1 (MATE1; [2]): 1.22
MATE2 (MATE2K; [3]): 1.15

CC(C)(C)NCC(O)c1ccc(O)c(O)c1 (stereo not shown) [Colterol]
MATE1 ratio (MATE1; [1]): 10.79
MATE1 (uptake ratio) (MATE1; [4]): 10.79
MATE2K ratio (MATE2K; [1]): 5.80
MATE2 (uptake ratio) (MATE2K; [5]): 5.8

N[C@@H](Cc1ccc(O)c(O)c1)C(=O)O [Levodopa]
MATE1 ratio (MATE1; [1]): 0.71
MATE2K ratio (MATE2K; [1]): 1.01

COc1ccc([C@@H](CN(C)C)C2(O)CCCCC2)cc1 [Venlafaxine (S)]
MATE1 (MATE1): 1.22
MATE2 (MATE2K): 1.44

COc1ccc([C@H](CN(C)C)C2(O)CCCCC2)cc1 [Venlafaxine (R)]
MATE1 (MATE1): 1.14
MATE2 (MATE2K): 1.36

C1CNCCN1 [Piperazine]
MATE1 ratio (MATE1; [1]): 0.92
MATE2K ratio (MATE2K; [1]): 1.03

CC(=O)O[C@H]1C[C@@H]2CC[C@@H]3[C@H](CC[C@@]4(C)[C@H]3C[C@H]([N+]3(C)CCCCC3)[C@@H]4OC(C)=O)[C@@]2(C)C[C@@H]1N1CCCCC1 [Vecuronium]
MATE1 (MATE1): 8.32
MATE2 (MATE2K): 4.72

CC(C)(C)NCC(O)COc1nsnc1N1CCOCC1 (stereo in doubt) [Timolol (R)]
MATE1 (MATE1; [2]): 0.94
MATE2 (MATE2K; [3]): 0.96

CCCCCCCN [Heptylamine]
MATE1 ratio (MATE1): 1.18
MATE2K ratio (MATE2K): 1.60

O=P1(NCCCl)OCCCN1CCCl (stereo not shown) [Ifosfamide]
MATE1 ratio (MATE1): 1.24
MATE2K ratio (MATE2K): 1.17

C1CCN2C[C@@H]3C[C@@H](CN4CCCC[C@@H]34)[C@H]2C1 [Sparteine (+), Sparteine]
MATE1 (MATE1): 1.62
MATE1 ratio (MATE1): 1.62
MATE2 (MATE2K): 1.31
MATE2K ratio (MATE2K): 1.31

CN1CCN(CC(=O)N2c3ccccc3C(=O)Nc3cccnc32)CC1 [Pirenzepine]
MATE1 ratio (MATE1; [1]): 2.80
MATE2K ratio (MATE2K; [1]): 1.36

CC(N)[C@H](O)c1ccc(O)c(O)c1 (stereo partly drawn) [Alpha-methylnorepinephrine (-), Alpha-methylnorepinephrine]
MATE1 (uptake ratio) (MATE1): 1.85
MATE1 ratio (MATE1): 1.85
MATE2 (uptake ratio) (MATE2K): 0.72
MATE2K ratio (MATE2K): 0.72

CC[C@@H]1CN(C(=O)NCC(F)(F)F)C[C@@H]1c1cnc2cnc3[nH]ccc3n12 [Upadacitinib]
MATE1 (MATE1; [2]): 1.51
MATE2 (MATE2K; [3]): 1.27

CC(C)NCC(O)COc1cccc2ccccc12 [Propranolol (S), Propranolol]
MATE1 (MATE1; [2]): 1.13
MATE2 (MATE2K; [3]): 0.96

NCCc1c[nH]cn1 [Histamine]
MATE1 ratio (MATE1; [1]): 19.90
MATE2K ratio (MATE2K; [1]): 1.40

CC(C)c1cccc(C(C)C)c1O [Propofol]
MATE1 (MATE1): 0.64
MATE1 ratio (MATE1): 0.64
MATE2 (MATE2K): 0.8
MATE2K ratio (MATE2K): 0.80

O=C1CCC(N2C(=O)c3ccccc3C2=O)C(=O)N1 (stereo not shown) [Thalidomide]
MATE1 (MATE1; [2]): 0.85
MATE2 (MATE2K; [3]): 2.02

COc1cc2c(cc1OC)CC(=O)N(CCCN(C)C[C@H]1Cc3cc(OC)c(OC)cc31)CC2 [Ivabradine]
MATE1 ratio (MATE1; [1]): 1.14
MATE2K ratio (MATE2K; [1]): 1.23

CN(C)CCOC(=O)C(c1ccccc1)C1(O)CCCC1 (stereo not shown) [Cyclopentolate]
MATE1 ratio (MATE1; [1]): 1.09
MATE2K ratio (MATE2K; [1]): 1.34

CC(CCc1ccc(O)cc1)NCC(O)c1ccc(O)cc1 (stereo not shown) [Ractopamine]
MATE1 (MATE1): 4.56
MATE1 ratio (MATE1): 4.56
MATE2 (MATE2K): 1.4
MATE2K ratio (MATE2K): 1.40

C=CCOc1ccccc1OCC(O)CNC(C)C (stereo not shown) [Oxprenolol]
MATE1 ratio (MATE1; [1]): 1.05
MATE2K ratio (MATE2K; [1]): 1.20

CCNCC(O)c1cccc(O)c1 (stereo not shown) [Etilefrine]
MATE1 ratio (MATE1; [1]): 9.81
MATE2K ratio (MATE2K; [1]): 2.04

CC(C)(C)NCC(O)c1cc(O)cc(O)c1 (stereo not shown) [Terbutaline]
MATE1 (MATE1; [2]): 6.74
MATE2 (MATE2K; [3]): 7.04

OCCN(CCO)c1nc(N2CCCCC2)c2nc(N(CCO)CCO)nc(N3CCCCC3)c2n1 [Dipyridamole]
MATE1 ratio (MATE1; [1]): 1.11
MATE2K ratio (MATE2K; [1]): 1.13

CC1(C)S[C@@H]2[C@H](NC(=O)[C@H](N)c3ccc(O)cc3)C(=O)N2[C@H]1C(=O)O [Amoxicillin]
MATE1 ratio (MATE1; [1]): 1.82
MATE1 (uptake ratio) (MATE1; [4]): 1.82
MATE2K ratio (MATE2K; [1]): 0.67
MATE2 (uptake ratio) (MATE2K; [5]): 0.67

CN(C)CCCN1c2ccccc2Sc2ccc(Cl)cc21 [Chlorpromazine]
MATE1 ratio (MATE1; [1]): 1.42
MATE1 (uptake ratio) (MATE1; [4]): 1.42
MATE2K ratio (MATE2K; [1]): 1.33
MATE2 (uptake ratio) (MATE2K; [5]): 1.33

COc1cc(CCN)ccc1O [3-Methoxy-p-tyramine]
MATE1 (uptake ratio) (MATE1): 4.05
MATE1 ratio (MATE1): 4.05
MATE2 (uptake ratio) (MATE2K): 1.39
MATE2K ratio (MATE2K): 1.39

C1CCN2C[C@H]3C[C@H](CN4CCCC[C@@H]34)[C@H]2C1 [Sparteine (-), Sparteine]
MATE1 (MATE1): 2.12
MATE1 ratio (MATE1): 2.12
MATE1 ratio in this study (MATE1): 2.12
MATE2 (MATE2K): 1.66
MATE2K ratio (MATE2K): 1.66
MATE2K ratio in this study (MATE2K): 1.66

Cc1oc2nc3c(c(NC(=O)CN4CCCC4=O)c2c1C)CCCC3 [Coluracetam]
MATE1 ratio (MATE1; [1]): 0.97
MATE2K ratio (MATE2K; [1]): 0.97

CN(C)c1ccc2nc3ccc(=[N+](C)C)cc-3sc2c1 [Methylene blue]
MATE1 ratio (MATE1): 2.36
MATE2K ratio (MATE2K): 1.55

N[C@@H]1C[C@H]1c1ccccc1 (racemic) [Tranylcypromine]
MATE1 (MATE1): 1.45
MATE2 (MATE2K): 1.98
